Data from ChEMBL document CHEMBL6109146, “Discovery of New Pyrazolone Carbothioamide Derivatives as Potent Antifungal Agents for the Treatment of Candidiasis and Cryptococcosis” (J Med Chem, 2025).
Converted amounts (≈) assume the structure as drawn. The source made the active and inactive calls. No cut-off for these calls is given here.

Experiments:
[1] = Clearance in male ICR mouse at 2 mg/kg, iv measured after 24 hrs by LC-MS/MS analysis; format: ADME, organism-based; settings: in vivo
[Candida] auris [2] = Antifungal activity against Candida auris 0029 assessed as inhibition of fungal growth incubated for 48 to 72 hrs by microplate reader analysis; format: functional, organism-based; settings: Candidozyma auris, time 48-72 hrs
[3] = Cmax in male ICR mouse at 2 mg/kg, iv measured after 24 hrs by LC-MS/MS analysis; format: ADME, organism-based; settings: in vivo
Nakaseomyces glabratus [4] = assay: Antifungal activity against Candida glabrata 9256 assessed as inhibition of fungal growth incubated for 48 to 72 hrs by microplate reader analysis; format: functional; settings: time 48-72 hrs
[Candida] auris [5] = Antifungal activity against Candida auris 15448 assessed as inhibition of fungal growth incubated for 48 to 72 hrs by microplate reader analysis; format: functional, organism-based; settings: Candidozyma auris, time 48-72 hrs
Cryptococcus neoformans [6] = assay: Antifungal activity against Cryptococcus neoformans H99 infected in cryptococcosis female ICR mouse model assessed as neat arrangement of neuronal cells at 5 to 20 mg/kg, ip pre-infected with fungi for 3 hrs followed by compound administration and measured after 5 days by H and E staining based analysis; format: functional, organism-based; settings: dose 5-20 mg/kg, time 5.0 day
Cryptococcus neoformans [7] = assay: Inhibition of urease production in Cryptococcus neoformans H99 at 0.125 microg/ml by photographic analysis relative to control; format: functional
[8] = Reduction in intracellular free iron ions level in Cryptococcus neoformans H99 at 4 microg/ml incubated for 24 hrs by absorbance based analysis relative to control; format: functional; parameters: scale not given: the % may be the effect or the level left; settings: dose 4 µg/ml
Candida albicans = assay: Antifungal activity against Candida albicans SC5314 assessed as inhibition of fungal growth incubated for 48 to 72 hrs by microplate reader analysis; format: functional, organism-based; settings: time 48-72 hrs
Candida glabrata = assay: Binding affinity to Candida glabrata KIX domain assessed as inhibition constant
Nakaseomyces glabratus [9] = assay: Antifungal activity against Candida glabrata 0161 assessed as inhibition of fungal growth at 32 microg/ml incubated for 48 hrs by spot-plating assay; format: functional, organism-based; settings: dose 32.0 µg/ml
Nakaseomyces glabratus [10] = assay: Antifungal activity against Candida glabrata 0161 assessed as inhibition of fungal growth at 0.5 to 32 microg/ml incubated for 48 hrs by spot-plating assay; format: functional, organism-based; settings: dose 0.5-32 µg/ml
Cryptococcus neoformans [11] = assay: Antifungal activity against Cryptococcus neoformans 011409 assessed as inhibition of fungal growth incubated for 48 to 72 hrs by microplate reader analysis; format: functional; settings: time 48-72 hrs
[12] = Tmax in male ICR mouse at 20 mg/kg, po measured after 24 hrs by LC-MS/MS analysis; format: ADME, organism-based; settings: in vivo
Cryptococcus neoformans [13] = assay: Fungicidal activity against Cryptococcus neoformans H99 at 32 microg/ml incubated for 72 hrs by time-kill kinetics analysis; format: functional, organism-based; settings: dose 32.0 µg/ml
Cryptococcus neoformans [14] = assay: Induction of morphological changes in Cryptococcus neoformans H99 assessed as vacuole fragmentation at 4 microg/ml incubated for 8 hrs by transmission electron microscopic analysis; format: functional, organism-based; settings: dose 4.0 µg/ml
[15] = Cytotoxicity against human L02 cells assessed as inhibition of cell proliferation incubated for 48 hrs by WST-8 reagent based assay; format: toxicity
Nakaseomyces glabratus [16] = assay: Inhibition of biofilm formation in Candida glabrata 0161 at 2 to 32 microg/ml incubated for 24 hrs by XTT reagent based assay; format: functional, organism-based; settings: dose 2-32 µg/ml
[17] = Cytotoxicity against HUVEC cells assessed as inhibition of cell proliferation incubated for 48 hrs by WST-8 reagent based assay; format: toxicity; settings: human
Nakaseomyces glabratus [18] = assay: Antifungal activity against Candida glabrata 0161 assessed as inhibition of fungal growth at 0.13 microg/ml incubated up to 72 hrs by microplate reader analysis relative to control; format: functional
Cryptococcus neoformans [19] = assay: Antifungal activity against Cryptococcus neoformans H99 assessed as inhibition of fungal cell colony formation at 0.5 microg/ml incubated for 48 hrs by spot-plating assay; format: functional, organism-based; settings: dose 0.5 µg/ml
Cryptococcus neoformans [20] = assay: Antifungal activity against Cryptococcus neoformans H99 infected in cryptococcosis female ICR mouse model assessed as reduction in cysts formation in brain cortex at 5 mg/kg, ip pre-infected with fungi for 3 hrs followed by compound administration and measured after 5 days by H and E staining based analysis; format: functional, organism-based; settings: time 5.0 day
Cryptococcus neoformans [21] = assay: Upregulation of CAT1 gene expression in Cryptococcus neoformans H99 at 4 microg/ml incubated for 8 hrs by qRT-PCR analysis; format: functional; settings: dose 4.0 µg/ml
Cryptococcus neoformans [22] = assay: Induction of oxidative damage in Cryptococcus neoformans H99 assessed as increase in MDA level at 4 microg/ml incubated for 24 hrs relative to control; format: functional; settings: dose 4 µg/ml
Cryptococcus neoformans [23] = assay: Inhibition of melanin production in Cryptococcus neoformans H99 at 0.125 microg/ml by photographic analysis relative to control; format: functional
[24] = AUC (0 to infinity) in male ICR mouse at 2 mg/kg, iv measured after 24 hrs by LC-MS/MS analysis; format: ADME, organism-based; settings: in vivo
Cryptococcus neoformans [25] = assay: Antifungal activity against Cryptococcus neoformans H99 assessed as inhibition of fungal growth by measuring fold increase in MIC in presence of Fe(II) ion; format: functional
Cryptococcus neoformans [26] = assay: Induction of morphological changes in Cryptococcus neoformans H99 assessed as vacuole lysis at 4 microg/ml incubated for 8 hrs by transmission electron microscopic analysis; format: functional, organism-based; settings: dose 4.0 µg/ml
Cryptococcus neoformans [27] = assay: Upregulation of GPX1 gene expression in Cryptococcus neoformans H99 at 4 microg/ml incubated for 8 hrs by qRT-PCR analysis; format: functional; settings: dose 4.0 µg/ml
[28] = Antifungal activity against Cryptococcus gattii 01063P assessed as inhibition of fungal growth incubated for 48 to 72 hrs by microplate reader analysis; format: functional; settings: time 48-72 hrs
[29] = AUC (0 to t) in male ICR mouse at 20 mg/kg, po measured after 24 hrs by LC-MS/MS analysis; format: ADME, organism-based; settings: in vivo
Nakaseomyces glabratus [30] = assay: Upregulation of CAT1 gene expression in Candida glabrata 0161 incubated for 8 hrs by qRT-PCR analysis; format: functional
Nakaseomyces glabratus [31] = assay: Induction of oxidative damage Candida glabrata 0161 assessed as increase in MDA level incubated for 24 hrs; format: functional, organism-based
Cryptococcus neoformans [32] = assay: Upregulation of TRR1 gene expression in Cryptococcus neoformans H99 at 4 microg/ml incubated for 8 hrs by qRT-PCR analysis; format: functional; settings: dose 4.0 µg/ml
Nakaseomyces glabratus [33] = assay: Antifungal activity against Candida glabrata 0161 assessed as inhibition of fungal cell colony formation at 0.5 microg/ml incubated for 48 hrs by spot-plating assay; format: functional, organism-based; settings: dose 0.5 µg/ml
[34] = Half-life in male ICR mouse at 2 mg/kg, iv measured after 24 hrs by LC-MS/MS analysis; format: ADME, organism-based; settings: in vivo
Cryptococcus neoformans [35] = assay: Antifungal activity against Cryptococcus neoformans HN-68 assessed as inhibition of fungal growth incubated for 48 to 72 hrs by microplate reader analysis; format: functional; settings: time 48-72 hrs
Nakaseomyces glabratus [36] = assay: Inhibition of biofilm formation in Candida glabrata 0161 at 16 to 32 microg/ml incubated for 24 hrs by XTT reagent based assay relative to control; format: functional; settings: dose 16-32 µg/ml, at 16 to 32 µg/mL
Cryptococcus neoformans [37] = assay: Antifungal activity against Cryptococcus neoformans H99 assessed as inhibition of fungal growth in presence of 1 to 10 microg/ml Fe(II) ion; format: functional, organism-based
Nakaseomyces glabratus [38] = assay: Reduction in intracellular free iron ions level in Candida glabrata 0161 incubated for 24 hrs by absorbance based analysis; format: functional
[39] = AUC (0 to infinity) in male ICR mouse at 20 mg/kg, po measured after 24 hrs by LC-MS/MS analysis; format: ADME, organism-based; settings: in vivo

Nc1cc(=O)n(C(=S)Nc2ccc(C3CCCCC3)cc2)[nH]1
clearance [1]: 16.2 mL/min/kg | Activity ([Candida] auris [2]): Active | Cmax [3]: 2810 ng/mL | MIC80 (Nakaseomyces glabratus [4]): 1.2 10^-4 ug/ml | Activity ([Candida] auris [5]): Active | Activity (Cryptococcus neoformans [6]): Active | inhibition at 0.125 µg/mL (Cryptococcus neoformans [7]): 100% | Activity [8]: ~80% | Activity (Candida albicans): Active | K (Candida glabrata): 174 µM | Activity (Nakaseomyces glabratus [9]): Moderate_effect | Activity (Nakaseomyces glabratus [10]): Active | MIC80 (Cryptococcus neoformans [11]): 1.2 10^-4 ug/ml | Tmax [12]: 15 min | Activity (Cryptococcus neoformans [13]): inactive | Activity (Cryptococcus neoformans [14]): Active | IC50 at 48 h [15]: 13.9 µg/mL (≈ 44 µM) | inhibition (Nakaseomyces glabratus [16]): Moderate_effect | IC50 at 48 h [17]: 0.64 µg/mL (≈ 2.02 µM) | inhibition at 0.13 µg/mL (Nakaseomyces glabratus [18]): 100% | Activity (Cryptococcus neoformans [19]): Active | Activity (Cryptococcus neoformans [20]): Active | Activity (Cryptococcus neoformans [21]): Active | Activity (Cryptococcus neoformans [22]): ~20% | inhibition at 0.125 µg/mL (Cryptococcus neoformans [23]): 100% | AUC(0-inf) [24]: 2100 ng·h/mL | fold change (FC) (Cryptococcus neoformans [25]): ~1000 | Activity (Cryptococcus neoformans [26]): Active | Activity (Cryptococcus neoformans [27]): Active | MIC80 [28]: 1.2 10^-4 ug/ml | AUC(0-t) at 24 h [29]: 4600 ng·h/mL | Activity (Nakaseomyces glabratus [30]): Active | Activity (Nakaseomyces glabratus [31]): Active | Activity (Cryptococcus neoformans [32]): Active | Activity (Nakaseomyces glabratus [33]): Active | half-life [34]: 127 min | MIC80 (Cryptococcus neoformans [35]): 1.2 10^-4 ug/ml | inhibition (INH) (Nakaseomyces glabratus [36]): ~100% | Activity (Cryptococcus neoformans [37]): inactive | Activity (Nakaseomyces glabratus [38]): Active | AUC(0-inf) [39]: 4740 ng·h/mL
